Experimental data: US7138361B2, “Herbicidal heterocycles” (E. I. du Pont de Nemours and Company, priority 2000, dated 2006)

Legend:
Format in all cases: in vivo
[1] = test system: duck salad (Heteranthera limosa); assay: Test C flooded paddy test; settings: for Ducksalad plant response rating: Flooded Paddy, scale 0 to 100, 0 no effect, 100 complete control; for Plant response rating, Ducksalad: flooded paddy test, scale 0 to 100 (0 no effect, 100 complete control)
Summary of the method: (§1)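 Plants were grown to the 2-leaf stage under flooded paddy conditions and treated. They were then kept in a greenhouse for 12 to 14 days and visually rated against untreated controls on a 0–100 scale, where 0 is no effect and 100 is complete control.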

rice (Oryza saliva) [2] = assay: Test C flooded paddy test; settings: for Rice plant response rating: Flooded Paddy, scale 0 to 100, 0 no effect, 100 complete control; for Plant response rating, Rice: flooded paddy test, scale 0 to 100 (0 no effect, 100 complete control)
Summary of the method: as §1

[3] = test system: barnyardgrass (Echinochloa crus-galli); assay: Test C flooded paddy test; settings: for Barnyardgrass plant response rating: Flooded Paddy, scale 0 to 100, 0 no effect, 100 complete control; for Plant response rating, Barnyardgrass: flooded paddy test, scale 0 to 100 (0 no effect, 100 complete control)
Summary of the method: as §1

[4] = test system: smallflower flatsedge (Cyperus difformis); assay: Test C flooded paddy test; settings: for Flatsedge plant response rating: Flooded Paddy, scale 0 to 100, 0 no effect, 100 complete control; for Plant response rating, Flatsedge: flooded paddy test, scale 0 to 100 (0 no effect, 100 complete control)
Summary of the method: as §1

Sunflower = assay: Test C preemergence; settings: Rate 125 g/ha, scale 0 to 100, 0 no effect, 100 complete control
[5] = test system: blackgrass (Alopecurus myosuroides); assay: Test B postemergence; settings: 13 to 15 days
Summary of the method: (§2)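 Preemergence: seeds planted and treated with test chemicals in non-phytotoxic solvent with surfactant; postemergence on plants 2–18 cm (1- to 4-leaf stage). Kept in greenhouse 13–15 days, then visually rated against controls on a 0 (no effect) to 100 (complete control) scale.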

[6] = test system: velvetleaf (Abutilon theophrasti); assay: Test B postemergence; settings: 13 to 15 days
Summary of the method: as §2

[7] = test system: barnyardgrass (Echinochloa crus-galli); assay: Test B postemergence; settings: 13 to 15 days
Summary of the method: as §2

[8] = test system: pigweed (Amaranthus retroflexus); assay: Test B postemergence; settings: 13 to 15 days
Summary of the method: as §2

corn (Zea mays) [9] = assay: Test B postemergence; settings: 13 to 15 days
Summary of the method: as §2

[10] = test system: Surinam grass (Brachiaria decumbens); assay: Test B postemergence; settings: 13 to 15 days
Summary of the method: as §2

[11] = test system: wheat (Triticum aestivum); assay: Test B postemergence; settings: 13 to 15 days
Summary of the method: as §2

[12] = test system: morning glory (Ipomoea hederacea); assay: Test B postemergence; settings: 13 to 15 days
Summary of the method: as §2

[13] = test system: giant foxtail (Setaria faberii); assay: Test B postemergence; settings: 13 to 15 days
Summary of the method: as §2

[14] = test system: lambsquarters (Chenopodium album); assay: Test B preemergence; settings: scale 0 to 100, 0 no effect, 100 complete control
Summary of the method: as §2

[15] = test system: velvetleaf (Abutilon theophrasti); assay: Test B preemergence; settings: scale 0 to 100, 0 no effect, 100 complete control
Summary of the method: as §2

rice (Oryza saliva) [16] = assay: Test B preemergence; settings: scale 0 to 100, 0 no effect, 100 complete control
Summary of the method: as §2

[17] = test system: barnyardgrass (Echinochloa crus-galli); assay: Test B preemergence; settings: scale 0 to 100, 0 no effect, 100 complete control
Summary of the method: as §2

[18] = test system: pigweed (Amaranthus retroflexus); assay: Test B preemergence; settings: scale 0 to 100, 0 no effect, 100 complete control
Summary of the method: as §2

corn (Zea mays) [19] = assay: Test B preemergence; settings: scale 0 to 100, 0 no effect, 100 complete control
Summary of the method: as §2

[20] = test system: crabgrass (Digitaria sanguinalis); assay: Test B preemergence; settings: scale 0 to 100, 0 no effect, 100 complete control
Summary of the method: as §2

[21] = test system: Surinam grass (Brachiaria decumbens); assay: Test B preemergence; settings: scale 0 to 100, 0 no effect, 100 complete control
Summary of the method: as §2

[22] = test system: morning glory (Ipomoea hederacea); assay: Test B preemergence; settings: scale 0 to 100, 0 no effect, 100 complete control
Summary of the method: as §2

[23] = test system: giant foxtail (Setaria faberii); assay: Test B preemergence; settings: scale 0 to 100, 0 no effect, 100 complete control
Summary of the method: as §2

[24] = test system: cocklebur (Xanthium strumarium); assay: Test B preemergence; settings: scale 0 to 100, 0 no effect, 100 complete control
Summary of the method: as §2

Nightshade = assay: Test C preemergence; settings: Rate 250 g/ha, visual evaluation after 12 to 14 days
[25] = Rate 125 g/ha, scale 0 (no effect) to 100 (complete control)
[26] = Rate 500 g/ha, scale 0 to 100, 0 is no effect, 100 is complete control

Structure (SMILES): CCC(CC)c1ccn(C2SCN(c3cccc(C(F)(F)F)c3)C2=O)n1 (stereo not shown) [Compound 25]
- Ducksalad plant response rating ([1]; Rate 250 g/ha): 100
- Ducksalad plant response rating ([1]; Rate 500 g/ha): 100
- Plant response rating, Ducksalad ([1]; Rate 62 g/ha): 100
- Plant response rating, Ducksalad ([1]; Rate 125 g/ha): 100
- Rice plant response rating (rice (Oryza saliva) [2]; Rate 250 g/ha): 60
- Rice plant response rating (rice (Oryza saliva) [2]; Rate 500 g/ha): 80
- Plant response rating, Rice (rice (Oryza saliva) [2]; Rate 62 g/ha): 30
- Plant response rating, Rice (rice (Oryza saliva) [2]; Rate 125 g/ha): 20
- Barnyardgrass plant response rating ([3]; Rate 250 g/ha): 100
- Barnyardgrass plant response rating ([3]; Rate 500 g/ha): 100
- Plant response rating, Barnyardgrass ([3]; Rate 62 g/ha): 100
- Plant response rating, Barnyardgrass ([3]; Rate 125 g/ha): 100
- Flatsedge plant response rating ([4]; Rate 250 g/ha): 100
- Flatsedge plant response rating ([4]; Rate 500 g/ha): 100
- Plant response rating, Flatsedge ([4]; Rate 62 g/ha): 100
- Plant response rating, Flatsedge ([4]; Rate 125 g/ha): 100
- Plant response rating, Sunflower (Sunflower): 40
- Plant response rating, Blackgrass [5, 25]: 0
- Plant response rating, Blackgrass [5, 26]: 0
- Plant response rating, Velvetleaf [6, 25]: 0
- Plant response rating, Velvetleaf [6, 26]: 20
- Plant response rating, Barnyardgrass [7, 25]: 100
- Plant response rating, Barnyardgrass [7, 26]: 100
- Plant response rating, Pigweed [8, 25]: 70
- Plant response rating, Pigweed [8, 26]: 100
- Plant response rating, Corn (corn (Zea mays) [9]; [25]): 0
- Plant response rating, Corn (corn (Zea mays) [9]; [26]): 60
- Plant response rating, Surinam grass [10, 25]: 0
- Plant response rating, Surinam grass [10, 26]: 40
- Plant response rating, Wheat [11, 25]: 0
- Plant response rating, Wheat [11, 26]: 0
- Plant response rating, Morningglory [12, 25]: 90
- Plant response rating, Morningglory [12, 26]: 100
- Plant response rating, Foxtail, Giant [13, 25]: 20
- Plant response rating, Foxtail, Giant [13, 26]: 80
- Plant response rating, Lambsquarters ([14]; Preemergence, Rate 500 g/ha): 100
- Plant response rating, Lambsquarters ([14]; preemergence, Rate 125 g/ha): 100
- Plant response rating, Velvetleaf ([15]; Preemergence, Rate 500 g/ha): 0
- Plant response rating, Velvetleaf ([15]; preemergence, Rate 125 g/ha): 0
- Plant response rating, Rice (rice (Oryza saliva) [16]; Preemergence, Rate 500 g/ha): 0
- Plant response rating, Rice (rice (Oryza saliva) [16]; preemergence, Rate 125 g/ha): 0
- Plant response rating, Barnyardgrass ([17]; Preemergence, Rate 500 g/ha): 100
- Plant response rating, Barnyardgrass ([17]; preemergence, Rate 125 g/ha): 100
- Plant response rating, Pigweed ([18]; Preemergence, Rate 500 g/ha): 100
- Plant response rating, Pigweed ([18]; preemergence, Rate 125 g/ha): 100
- Plant response rating, Corn (corn (Zea mays) [19]; Preemergence, Rate 500 g/ha): 0
- Plant response rating, Corn (corn (Zea mays) [19]; preemergence, Rate 125 g/ha): 0
- Plant response rating, Crabgrass ([20]; Preemergence, Rate 500 g/ha): 100
- Plant response rating, Crabgrass ([20]; preemergence, Rate 125 g/ha): 100
- Plant response rating, Surinam grass ([21]; Preemergence, Rate 500 g/ha): 80
- Plant response rating, Surinam grass ([21]; preemergence, Rate 125 g/ha): 80
- Plant response rating, Morningglory ([22]; Preemergence, Rate 500 g/ha): 90
- Plant response rating, Morningglory ([22]; preemergence, Rate 125 g/ha): 0
- Plant response rating, Foxtail, Giant ([23]; Preemergence, Rate 500 g/ha): 100
- Plant response rating, Foxtail, Giant ([23]; preemergence, Rate 125 g/ha): 100
- Plant response rating, Cocklebur ([24]; Preemergence, Rate 500 g/ha): 0
- Plant response rating, Cocklebur ([24]; preemergence, Rate 125 g/ha): 0
- Plant response rating (0 to 100), Nightshade (Nightshade): 90
